How the values were obtained:
[1] = LNP size and polydispersity index (PDI) by dynamic light scattering; assay type: physicochemical; settings: for Size: in nm (unit assumed)
Procedure, shortened: (§1)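 Ribogreen fluorescence with and without Triton X-100 gave encapsulation as 100% − (intact/lysed) signal; DLS size, PDI and zeta potential measured on a Zetasizer. Particles: 50:10:38.5:1.5 lipid mix, luciferase circRNA or mRNA, lipid:nucleotide 15 or 6, microfluidic assembly at pH 4.5, PBS-dialyzed.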

[2] = LNP zeta potential (Zetasizer); assay type: physicochemical
Procedure, shortened: as §1

[3] = RNA encapsulation efficacy by Quant-IT Ribogreen kit; assay type: physicochemical; settings: for Encapsulation Efficiency %: LNP with cirRNA (SEQ ID NO: 1); for Encapsulation Efficiency: LNP with mRNA (SEQ ID NO: 2)
Procedure, shortened: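 LNPs of ionizable lipid/DSPC/cholesterol/DMG-PEG 2000 (50:10:38.5:1.5) made by microfluidic mixing of luciferase circRNA or mRNA in pH 4.5 acetate with lipids in ethanol (3:1, 12 ml/min), ionizable lipid:nucleotide 15 or 6, then dialyzed against PBS. Size, PDI (DLS) and zeta potential on Zetasizer; encapsulation by Ribogreen ± Triton X-100.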

Hep G2 cells [4] = assay: In vitro expression of firefly-luciferase, Hep G2; assay type: cell-based
Procedure, shortened: (§2)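 Cells were transfected with firefly-luciferase-encoding RNA-LNPs at 100 ng/mL. After 72 hours they were washed and lysed, and luciferase activity in the lysates was read by luminometry.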

RAW 264.7 cells [5] = assay: In vitro expression of firefly-luciferase, RAW 264.7; assay type: cell-based
Procedure, shortened: as §2

Hep G2 cells [6] = assay: In vitro toxicity (CellTiter-Glo cell viability), Hep G2; assay type: cell-based;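 also: percent of untreated cells luminescence signal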
Procedure, shortened: (§3)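 Viability after a 72 h incubation with 1 μg/mL RNA-LNP formulations was assessed luminometrically using CellTiter-Glo.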

RAW 264.7 cells [7] = assay: In vitro toxicity (CellTiter-Glo cell viability), RAW 264.7; assay type: cell-based;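 also: percent of untreated cells luminescence signal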
Procedure, shortened: as §3

BALB/C mice [8] = assay: In vivo expression, whole-body luminescence (IVIS)
Description: 6-8 week old, female BALB/C mice were injected with 0.05 mg*kg-1 of RNA-LNPs encoding for firefly-luciferase by intravenous injection. At 6 hours post injection, animals were intraperitoneally injected with 15 mg/ml of Luciferin substrate and whole-body luminescence was determined by a bioluminescent in vivo imaging system (IVIS).

MCP-I = MCP-I cytokine elevation in serum; assay type: in vivo; settings: cirRNA (SEQ ID NO: 1) LNPs, mice
Description: 6-8 week old, female BALB/C mice were injected with 0.5 mg*kg-1 of RNA LNPs by intravenous injection. At 2 and 24 hours post injection, animals were bled and sera concentrations of MCP-I were determined by an immunoassay (Luminex).

[9] = system: Alanine Aminotransferase (ALT); assay: Liver enzyme elevation in serum, ALT; assay type: in vivo; settings: cirRNA (SEQ ID NO: 1) LNPs, BALB/C mice, intravenous 0.5 MPK
Description: (§4) 6-8 week old, female BALB/C mice were injected with 0.5 mg*kg-1 of RNA LNPs by intravenous injection. At 2 and 24 hours post injection, animals were bled and sera concentrations of Alanine Aminotransferase (ALT) and Aspartate Aminotransferase (AST) were determined by a blood chemistry analyzer.

[10] = system: Aspartate Aminotransferase (AST); assay: Liver enzyme elevation in serum, AST; assay type: in vivo; settings: cirRNA (SEQ ID NO: 1) LNPs, BALB/C mice, intravenous 0.5 MPK
Description: as §4

BALB/C mice [11] = assay: Local tolerance determination by footpad injection; assay type: in vivo; settings: cirRNA (SEQ ID NO: 1) LNP, 0.175 mg*kg-1 subcutaneous into the footpad, 24 hours post minus prior
Description: 6-8 week old, female BALB/C mice were injected with 0.175 mg*kg-1 RNA LNPs by subcutaneous injection into the footpad. Prior to, and 24 hours post injections, injected footpad thickness was determined by a caliper.

[12] = cirRNA (SEQ ID NO: 1) LNPs, firefly-luciferase luminescence, Hep G2 cells
[13] = mRNA (SEQ ID NO: 2) LNP, 100 ng/mL, 72 hours post transfection, luciferase activity
[14] = cirRNA (SEQ ID NO: 1) LNPs, firefly-luciferase luminescence, RAW 264.7 cells
[15] = cirRNA (SEQ ID NO: 1) LNPs, Hep G2 cells
[16] = mRNA (SEQ ID NO: 2) LNP, 1 μg/mL, 72 hours post transfection
[17] = cirRNA (SEQ ID NO: 1) LNPs, RAW 264.7 cells
[18] = cirRNA (SEQ ID NO: 1) LNPs, BALB/C mice
[19] = mRNA (SEQ ID NO: 2) LNP, 0.05 mg*kg-1 intravenous, 6 hours post injection

Row | PDI ([1]; LNP with cirRNA (SEQ ID NO: 1)) | Size ([1]; LNP with cirRNA (SEQ ID NO: 1)) | PDI ([1]; LNP with mRNA (SEQ ID NO: 2)) | Size ([1]; LNP with mRNA (SEQ ID NO: 2)) | Zeta (mV) ([2]; LNP with cirRNA (SEQ ID NO: 1)) | Zeta (mV) ([2]; LNP with mRNA (SEQ ID NO: 2)) | Encapsulation Efficiency % [3] [%] | Encapsulation Efficiency [3] [%] | MCP-I in Sera 2 hours After 0.5 MPK Injection (MCP-I) [pg/mL] | MCP-I in Sera 24 hours After 0.5 MPK Injection (MCP-I) [pg/mL] | Compound | In vitro Expression HepG2 (Hep G2 cells [4]; [12]) | In vitro Expression HepG2 (Hep G2 cells [4]; [13]) | In vitro Expression RAW (RAW 264.7 cells [5]; [14]) | In vitro Expression RAW (RAW 264.7 cells [5]; [13]) | In vitro Viability HepG2 (Hep G2 cells [6]; [15]) [%] | In vitro Viability HepG2 (Hep G2 cells [6]; [16]) [%] | In vitro Viability RAW (RAW 264.7 cells [7]; [17]) [%] | In vitro Viability RAW (RAW 264.7 cells [7]; [16]) [%] | In vivo Expression (Whole Body) (BALB/C mice [8]; [18]) | In vivo Expression (Whole Body) (BALB/C mice [8]; [19]) | other results
1 | 0.1398 | 102 | 0.07745 | 87.9 | 9.074 | 5.722 | 97 | 90.28 | 6397.67 | 561.62 | CCCCCCCCC(CCCCCC)C(=O)OCCCCCCCCN(CCCCCCCCOC(=O)C(CCCCCC)CCCCCCCC)CCCOC(=O)NCCCN(CC)CC (stereo not drawn) [Lipid 376] | 4.84E+06 | 5.32E+05 | 1.00E+06 | 8.33E+04 | 48 | 53 | 87 | 100 | 1.16E+08 | 1.56E+09 | ALT in Sera (IU/L) 2 hours After 0.5 MPK Injection [9]: 117.33 IU/L; ALT in Sera (IU/L) 24 hours After 0.5 MPK Injection [9]: 141.33 IU/L; AST in Sera (IU/L) 2 hours After 0.5 MPK Injection [10]: 434.67 IU/L; AST in Sera (IU/L) 24 hours After 0.5 MPK Injection [10]: 293.67 IU/L; Footpad Thickness (24 h−0 h, mm) (BALB/C mice [11]): 0.89 mm
2 | 0.1668 | 112.8 | 0.02507 | 88.83 | −2.171 | −2.552 | 92 | 80.50 | 1168.73 | 1025.26 | CCCCCCCCC(CCCCCC)C(=O)OCCCCCCCCN(CCCCCCCCOC(=O)C(CCCCCC)CCCCCCCC)CCCOC(=O)NCCN1CCCCC1 (stereo not drawn) [Lipid 380] | 2.95E+07 | 7.30E+07 | 2.22E+06 | 1.45E+06 | 89 | 94 | 86 | 106 | 4.50E+08 | 4.00E+08 | ALT in Sera (IU/L) 2 hours After 0.5 MPK Injection [9]: 89.33 IU/L; ALT in Sera (IU/L) 24 hours After 0.5 MPK Injection [9]: 122.00 IU/L; AST in Sera (IU/L) 2 hours After 0.5 MPK Injection [10]: 196.33 IU/L; AST in Sera (IU/L) 24 hours After 0.5 MPK Injection [10]: 480.67 IU/L; Footpad Thickness (24 h−0 h, mm) (BALB/C mice [11]): 0.25 mm
3 | 0.1744 | 90.41 | 0.1802 | 94.23 | −0.4606 | −13.05 | 95 | 86.72 | 5759.00 | 2458.33 | CCCCCCCCC(CCCCCC)C(=O)OCCCCCCCCN(CCCCCCCCOC(=O)C(CCCCCC)CCCCCCCC)CCCOC(=O)NCCN1CCCCCC1 (stereo not drawn) [Lipid 383] | 6.03E+06 | 3.97E+01 | 2.93E+06 | 2.14E+06 | 97 | 94 | 89 | 94 | 4.66E+08 | 2.01E+08 | ALT in Sera (IU/L) 2 hours After 0.5 MPK Injection [9]: 99.33 IU/L; ALT in Sera (IU/L) 24 hours After 0.5 MPK Injection [9]: 116.00 IU/L; AST in Sera (IU/L) 2 hours After 0.5 MPK Injection [10]: 245.00 IU/L; AST in Sera (IU/L) 24 hours After 0.5 MPK Injection [10]: 354.67 IU/L; Footpad Thickness (24 h−0 h, mm) (BALB/C mice [11]): 0.60 mm
